Like-named read-outs stand apart in the source and are kept apart here.
What was measured:
F508del/F508del CFTR = target: T1, F508del/F508del CFTR (Homo sapiens, UniProt P13569, DEL508-508); experiment: Trans-Epithelial Current Clamp (TECC) assay using primary human bronchial epithelial cells; format: cell-based; details: for Emax (% Dual): maximum percent activity relative to positive control (co-corrector 0.15 μM + potentiator 0.45 μM = 100%), primary hBE cells F508del/F508del; for EC50: primary hBE cells homozygous F508del/F508del, test C2 corrector with co-corrector and potentiator, 18-24 hours at 37° C., equivalent CFTR current (IEQ)/AUC
T1 construct: cells isolated from CF patients with the homozygous mutation; endogenous in cells; host or cells: primary human bronchial epithelial (hBE) cells from CF patients homozygous for F508del
Procedure, shortened: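 Readout is the equivalent CFTR current (IEQ, from offset-corrected VT and RT) plus AUC from forskolin peak to bumetanide addition, recorded on TECC-24 at 36.5° C. Beforehand, homozygous F508del hBE cultures received correctors with co-corrector and potentiator basolaterally for 18-24 h at 37° C.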

F508delCFTR = target: T2, F508delCFTR (Homo sapiens, UniProt P13569, DEL508-508); experiment: Cell Surface Expression-Horse Radish Peroxidase (CSE-HRP) assay in CFBE41o-F508delCFTR-HRP cells; format: cell-based; details: for EC50: CFBE41o-F508delCFTR-HRP cells, 18-24 hours at 33° C., luminescence; for Maximum % activity (without co-corrector) / Maximum % activity (with co-corrector): normalized to on-plate positive control corrector (2 μM)
T2 construct: expressed in transfected cells; host or cells: CFBE41o- human lung-derived epithelial cell line, doxycycline-inducible expression
Procedure, shortened: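 Test compounds were tested alone or alongside a co-corrector (2 μM), 8-point 3-fold series from 20 or 30 μM, for 18–24 h at 33 °C on doxycycline-induced CFBE41o-F508delCFTR-HRP cells. After washing, luminol luminescence reported cell-surface HRP-tagged CFTR, normalized to the positive control (% activity). EC50 was fitted with a variable Hill slope sigmoid from triplicate plates; Z′ >0.5 required.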

[1] = with co-corrector (2 μM), read-out: EC50 (with co-corrector)
[2] = without co-corrector, read-out: EC50 (without co-corrector)

T2 sequence (P13569 with tags, fused parts or gaps DEL508-508): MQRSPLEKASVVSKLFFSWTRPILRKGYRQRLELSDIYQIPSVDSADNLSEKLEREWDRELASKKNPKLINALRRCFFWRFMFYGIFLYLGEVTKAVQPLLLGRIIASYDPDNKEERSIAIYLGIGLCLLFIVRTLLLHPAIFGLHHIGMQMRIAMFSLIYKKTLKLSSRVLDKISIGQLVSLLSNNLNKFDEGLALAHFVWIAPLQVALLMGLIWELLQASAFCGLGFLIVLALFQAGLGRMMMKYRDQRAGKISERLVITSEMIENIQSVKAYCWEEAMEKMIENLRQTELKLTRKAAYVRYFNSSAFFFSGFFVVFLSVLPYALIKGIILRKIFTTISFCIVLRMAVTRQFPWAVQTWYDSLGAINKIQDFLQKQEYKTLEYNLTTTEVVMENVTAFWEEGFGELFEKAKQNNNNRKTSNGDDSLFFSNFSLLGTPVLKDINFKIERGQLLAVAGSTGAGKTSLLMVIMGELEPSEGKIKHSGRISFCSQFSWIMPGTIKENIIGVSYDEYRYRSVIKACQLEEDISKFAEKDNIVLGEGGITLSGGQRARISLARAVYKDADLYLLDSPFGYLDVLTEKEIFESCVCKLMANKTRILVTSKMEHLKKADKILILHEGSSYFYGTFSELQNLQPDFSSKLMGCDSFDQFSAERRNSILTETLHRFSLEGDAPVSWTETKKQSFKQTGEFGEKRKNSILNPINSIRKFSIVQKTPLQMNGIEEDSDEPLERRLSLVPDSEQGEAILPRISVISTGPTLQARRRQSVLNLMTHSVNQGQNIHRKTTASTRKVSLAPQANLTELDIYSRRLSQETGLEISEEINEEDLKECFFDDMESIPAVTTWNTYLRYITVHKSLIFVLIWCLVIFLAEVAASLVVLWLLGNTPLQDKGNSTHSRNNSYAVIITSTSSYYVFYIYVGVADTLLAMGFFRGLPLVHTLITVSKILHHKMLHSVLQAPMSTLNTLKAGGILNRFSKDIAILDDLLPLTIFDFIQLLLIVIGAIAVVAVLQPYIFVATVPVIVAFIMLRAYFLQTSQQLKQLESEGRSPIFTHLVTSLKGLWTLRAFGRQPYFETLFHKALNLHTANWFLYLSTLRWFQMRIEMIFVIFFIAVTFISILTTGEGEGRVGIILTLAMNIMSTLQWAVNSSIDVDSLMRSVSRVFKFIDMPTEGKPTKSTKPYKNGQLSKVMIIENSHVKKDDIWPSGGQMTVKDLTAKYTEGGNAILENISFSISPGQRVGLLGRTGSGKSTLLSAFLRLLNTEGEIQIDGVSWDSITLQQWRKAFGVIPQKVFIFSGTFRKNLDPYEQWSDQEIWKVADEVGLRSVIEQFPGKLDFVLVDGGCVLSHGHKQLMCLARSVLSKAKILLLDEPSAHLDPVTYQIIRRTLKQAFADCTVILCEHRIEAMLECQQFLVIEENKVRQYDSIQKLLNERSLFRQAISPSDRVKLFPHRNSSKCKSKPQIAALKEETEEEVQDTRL
T1 sequence (P13569 with tags, fused parts or gaps DEL508-508): as above

Emax (% Dual) (F508del/F508del CFTR)	EC50 (F508del/F508del CFTR) [nM]	EC50 (F508delCFTR; [1]) [nM]	EC50 (F508delCFTR; [2]) [nM]	Maximum % activity (without co-corrector) (F508delCFTR; without co-corrector) [%]	Maximum % activity (with co-corrector) (F508delCFTR; with co-corrector (2 μM)) [%]	Structure (SMILES)
355	50.8	2000	2930	890	–	COc1ccc(C)cc1[C@]1(C(=O)NS(=O)(=O)c2cccc3nc(C)ccc23)C[C@@H]1c1cncc(F)c1 (single isomer, unassigned) [Example 54]
315	97	890	1740	399	847	COc1ccc(C)cc1[C@@]1(C(=O)NS(=O)(=O)c2cccc3nc(C)ccc23)C[C@H]1c1cnc(C(C)C)cn1 (single isomer, unassigned) [Example 63]
208	19.3	586	1340	394	828	CCOc1cnc([C@@H]2C[C@]2(C(=O)NS(=O)(=O)c2cccc3nc(C)ccc23)c2cc(C)ccc2OC)cn1 (single isomer, unassigned) [Example 65]
230	30.6	785	1440	539	–	CCOc1ncccc1[C@@H]1C[C@]1(C(=O)NS(=O)(=O)c1cccc2nc(C)ccc12)c1cc(C)ccc1OC (single isomer, unassigned) [Example 73]
222	222	743	1290	188	545	COc1cncc([C@@H]2C[C@]2(C(=O)NS(=O)(=O)c2cccc3nc(C)ccc23)c2cc(C)ccc2OC)n1 (single isomer, unassigned) [Example 74]
402	36.2	635	1650	939	–	COc1cncc([C@H]2C[C@@]2(C(=O)NS(=O)(=O)c2cccc3nc(C)ccc23)c2cc(C)ccc2OC)n1 (single isomer, unassigned) [Example 75]
206	24.7	810	1010	786	–	COc1ccc(C)cc1[C@@]1(C(=O)NS(=O)(=O)c2cccc3nc(C)ccc23)C[C@H]1c1ccc(C)nc1OC (single isomer, unassigned) [Example 85]
176	24.1	1440	2210	–	–	COc1ccc(C)cc1[C@]1(C(=O)NS(=O)(=O)c2cccc3nc(C)ccc23)C[C@@H]1c1ccc(C)nc1OC (single isomer, unassigned) [Example 86]
271	6.9	165	452	881	–	COc1ccc(C)cc1[C@@]1(C(=O)NS(=O)(=O)c2cccc3nc(C)ccc23)C[C@H]1c1ccc(C(C)C)nc1OC (single isomer, unassigned) [Example 87]
275	12.6	534	1180	910	–	COc1ccc(C)cc1[C@]1(C(=O)NS(=O)(=O)c2cccc3nc(C)ccc23)C[C@@H]1c1ccc(C(C)C)nc1OC (single isomer, unassigned) [Example 88]
138	> 800	4340	5240	226	579	COc1ccc(C)cc1[C@@]1(C(=O)NS(=O)(=O)c2cccc3nc(C)ccc23)C[C@H]1c1cnc(C)cn1 (single isomer, unassigned) [Example 91]
187	87.6	1150	2130	653	–	COc1ccc(C)cc1[C@]1(C(=O)NS(=O)(=O)c2cccc3nc(C)ccc23)C[C@@H]1c1cnc(C)cn1 (single isomer, unassigned) [Example 92]
271	42.6	132	268	491	–	COc1ccc([C@@H]2C[C@]2(C(=O)NS(=O)(=O)c2cccc3nc(C)ccc23)c2cc(C)ccc2OC)c(OC)n1 (single isomer, unassigned) [Example 93]
201	21	804	1440	–	–	COc1nccc([C@H]2C[C@@]2(C(=O)NS(=O)(=O)c2cccc3nc(C)ccc23)c2cc(C)ccc2OC)n1 (single isomer, unassigned) [Example 98]
126	> 1000	2760	3980	180	509	COc1nccc([C@@H]2C[C@]2(C(=O)NS(=O)(=O)c2cccc3nc(C)ccc23)c2cc(C)ccc2OC)n1 (single isomer, unassigned) [Example 99]
207	114	2780	4490	–	–	COc1ccc(C)cc1[C@]1(C(=O)NS(=O)(=O)c2cccc3nc(C)ccc23)C[C@@H]1c1cnc(C)c(F)c1 (single isomer, unassigned) [Example 100]
199	147	884	1000	243	842	COc1ccc(C)cc1[C@@]1(C(=O)NS(=O)(=O)c2cccc3nc(C)ccc23)C[C@H]1c1cnc(C)c(F)c1 (single isomer, unassigned) [Example 101]
296	3.1	277	1450	–	–	COc1ccc(C)cc1[C@]1(C(=O)NS(=O)(=O)c2cccc3nc(C)ccc23)CC1c1cccc(Cl)n1 (stereo in doubt) [Example 105, (1S,2S)-2-(6-chloropyridin-2-yl)-1-(2-methoxy-5-methylphenyl)-N-(2-methylquinoline-5-sulfonyl)cyclopropane-1-carboxamide]
188	11.6	222	–	–	–	CCOc1nc(C2C[C@@]2(C(=O)NS(=O)(=O)c2cccc3nc(C)ccc23)c2cc(C)ccc2OC)ccc1F (stereo in doubt) [Example 106, (1S,2S)-2-(6-ethoxy-5-fluoropyridin-2-yl)-1-(2-methoxy-5-methylphenyl)-N-(2-methylquinoline-5-sulfonyl)cyclopropane-1-carboxamide]
214	49	2820	4600	679	–	COc1ccc(C)cc1[C@]1(C(=O)NS(=O)(=O)c2cccc3nc(C)ccc23)C[C@@H]1c1ccc(C)nc1 [Example 11, (1S,2R)-1-(2-methoxy-5-methylphenyl)-2-(6-methylpyridin-3-yl)-N-(2-methylquinoline-5-sulfonyl)cyclopropane-1-carboxamide]
232	57.7	1490	2480	–	–	COc1ccc(C)cc1[C@@]1(C(=O)NS(=O)(=O)c2cccc3nc(C)ccc23)C[C@H]1c1ccccn1 [Example 13, (1R,2R)-1-(2-methoxy-5-methylphenyl)-N-(2-methylquinoline-5-sulfonyl)-2-(pyridin-2-yl)cyclopropane-1-carboxamide]
165	799	2800	3810	520	–	COc1ccc(C)cc1[C@]1(C(=O)NS(=O)(=O)c2cccc3nc(C)ccc23)C[C@@H]1c1ccccn1 [Example 14, (1S,2S)-1-(2-methoxy-5-methylphenyl)-N-(2-methylquinoline-5-sulfonyl)-2-(pyridin-2-yl)cyclopropane-1-carboxamide]
259	9.1	1440	2960	–	–	COc1ccc([C@H]2C[C@@]2(C(=O)NS(=O)(=O)c2cccc3nc(C)ccc23)c2cc(C)ccc2OC)cn1 [Example 32, (1S,2R)-1-(2-methoxy-5-methylphenyl)-2-(6-methoxypyridin-3-yl)-N-(2-methylquinoline-5-sulfonyl)cyclopropane-1-carboxamide]
215	48.8	906	1270	470	–	COc1ccc([C@@H]2C[C@]2(C(=O)NS(=O)(=O)c2cccc3nc(C)ccc23)c2cc(C)ccc2OC)cn1 [Example 33, (1R,2S)-1-(2-methoxy-5-methylphenyl)-2-(6-methoxypyridin-3-yl)-N-(2-methylquinoline-5-sulfonyl)cyclopropane-1-carboxamide]

Source: patent US20240043386A1, “Modulators of the Cystic Fibrosis Transmembrane Conductance Regulator Protein and Methods of Use” (AbbVie Global Enterprises Ltd., priority 2021, published 2024)
